Laboratory results reported in patent US7638525B2 (Janssen Pharmaceutica N.V., priority 2004, dated 2009).

Test system: T47D human breast cancer cells
Experiment: In vitro test: alkaline phosphatase assay in T47D human breast cancer cells
Format: cell-based
Settings: alkaline phosphatase luminescence after 24 h with compound, test concentration not given
Experimental: T47D human breast cancer cells are grown in RPMI medium without phenol red (Invitrogen) containing 10% (v/v) heat-inactivated fetal bovine serum (FBS; Hyclone), 1% (v/v) penicillin-streptomycin (Invitrogen), 1% (w/v) glutamine (Invitrogen), and […] (Sigma). Incubation conditions are 37° C. in a humidified 5% (v/v) carbon dioxide environment. For assay, the cells are plated in 96-well tissue culture plates at 10,000 cells per well in assay medium [RPMI medium without phenol red (Invitrogen) containing 5% (v/v) charcoal-treated FBS (Hyclone) and 1% (v/v) penicillin-streptomycin (Invitrogen)]. Two days later, the medium is decanted and the compounds are added in a final concentration of 0.1% (v/v) dimethyl sulfoxide in fresh assay medium. Twenty-four hours later, an alkaline phosphatase assay is performed using a SEAP kit (BD Biosciences Clontech, Palo Alto, Calif.). Briefly, the medium is decanted and the cells are fixed for 30 minutes at room temperature with 5% (v/v) formalin (Sigma). The cells are washed once with room temperature Hank's buffered saline solution (Invitrogen). Equal volumes (0.05 mL) of 1× Dilution Buffer, Assay Buffer and 1:20 substrate/enhancer mixture are added. After 1-hour incubation at room temperature in the dark, the lysate is transferred to a white 96-well plate (Dynex) and luminescence is read using a LuminoSkan Ascent (Thermo Electron, Woburn, Mass.).

SMILES | % inhibition [%]
O=C(c1ccc(Cl)c(Cl)c1)c1cc(-c2ccncc2)c(N2CCC3(CC2)OCCO3)s1 [Example 1, (3,4-Dichloro-phenyl)-[5-(1,4-dioxa-8-aza-spiro[4.5]-dec-8-yl)-4-pyridin-4-yl-thiophen-2-yl]-methanon] | 6
O=C(c1ccc(F)cc1)c1cc(-c2ccncc2)c(N2CCC3(CC2)OCCO3)s1 [Example 2, [5-(1,4-Dioxa-8-aza-spiro[4.5]-dec-8-yl)-4-pyridin-4-yl-thiophen-2-yl]-(4-fluoro-phenyl)-methanone] | 15
O=C(c1ccc(Cl)cc1)c1cc(-c2ccncc2)c(N2CCC3(CC2)OCCO3)s1 [Example 3, (4-Chloro-phenyl)-[5-(1 4-dioxa-8-aza-spiro[4.5]-dec-8-yl)-4-pyridin-4-yl-thiophen-2-yl]-methanone] | 27
O=C(c1ccc([N+](=O)[O-])cc1)c1cc(-c2ccncc2)c(N2CCC3(CC2)OCCO3)s1 [Example 4, [5-(1 4-Dioxa-8-aza-spiro[4.5]-dec-8-yl)-4-pyridin-4-yl-thiophen-2-yl]-(4-nitro-phenyl)-methanone] | 0
CCC(=O)c1cc(-c2ccncc2)c(N2CCC3(CC2)OCCO3)s1 [Example 5, 1-[5-(1,4-Dioxa-8-aza-spiro[4.5]-dec-8-yl)-4-pyridin-4-yl-thiophen-2-yl]-1-one] | 0
O=C(c1ccccc1)c1cc(-c2ccncc2)c(N2CCC3(CC2)OCCO3)s1 [Example 6, [5-(1,4-Dioxa-8-aza-spiro[4.5]-dec-8-yl)-4-pyridin-4-yl-thiophen-2-yl]-phenyl-methanone] | 34
COc1cccc(C(=O)c2cc(-c3ccncc3)c(N3CCC4(CC3)OCCO4)s2)c1 [Example 7, [5-(1,4-Dioxa-8-aza-spiro[4.5]-dec-8-yl)-4-pyridin-4-yl-thiophen-2-yl-](3-methoxy-phenyl)-methanone] | 42
O=C(c1cc(C(F)(F)F)cc(C(F)(F)F)c1)c1cc(-c2ccncc2)c(N2CCC3(CC2)OCCO3)s1 [Example 8, (3,5-Bis-trifluoromethyl-phenyl)-[5-(1 4-dioxa-8-aza-spiro[4.5]-dec-8-yl)-4-pyridin-4-yl-thiophen-2-yl]-methanone] | 0
COc1ccccc1C(=O)c1cc(-c2ccncc2)c(N2CCC3(CC2)OCCO3)s1 [Example 9, [5-(1,4-Dioxa-8-aza-spiro[4.5]-dec-8-yl)-4-pyridin-4-yl-thiophen-2-yl]-(2-methoxy-phenyl)-methanone] | 30
O=C(c1cccc(Br)c1)c1cc(-c2ccncc2)c(N2CCC3(CC2)OCCO3)s1 [Example 10, (3-Bromo-phenyl)-[5-(1,4-dioxa-8-aza-spiro[4.5]-dec-8-yl)-4-pyridin-4-yl-thiophen-2-yl]-methanone] | 42
O=C1CCN(c2sc(C(=O)c3ccccc3)cc2-c2ccncc2)CC1 [Example 11, 1-(5-Benzoyl-3-pyridin-4-yl-thiophen-2-yl)-piperidin-4-one] | 35
COc1cccc(C(=O)c2cc(-c3ccncc3)c(N3CCC(=O)CC3)s2)c1 [Example 12, 1-[5-(3-Methoxy-benzoyl)-3-pyridin-4-yl-thiophen-2-yl]-piperidin-4-one] | 24
O=C1CCN(c2sc(C(=O)c3ccc(F)cc3)cc2-c2ccncc2)CC1 [Example 13, 1-[5-(4-Fluoro-benzoyl)-3-pyridin-4-yl-thiophen-2-yl]-piperidin-4-one] | 46
O=C1CCN(c2sc(C(=O)c3cc(C(F)(F)F)cc(C(F)(F)F)c3)cc2-c2ccncc2)CC1 [Example 14, 1-[5-(3,5-Bis-trifluoromethyl-benzoyl)-3-pyridin-4-yl-thiophen-2-yl]-piperidin-4-one] | 57
COc1ccccc1C(=O)c1cc(-c2ccncc2)c(N2CCC(=O)CC2)s1 [Example 15, 1-[5-(2-Methoxy-benzoyl)-3-pyridin-4-yl-thiophen-2-yl]-piperidin-4-one] | 39
O=C1CCN(c2sc(C(=O)c3ccc(Cl)cc3)cc2-c2ccncc2)CC1 [Example 16, 1-[5-(4-Chloro-benzoyl)-3-pyridin-4-yl-thiophen-2-yl]-piperidin-4-one] | 30
O=C1CCN(c2sc(C(=O)c3ccc([N+](=O)[O-])cc3)cc2-c2ccncc2)CC1 [Example 17, 1-[5-(4-Nitro-benzoyl)-3-pyridin-4-yl-thiophen-2-yl]-piperidi n-4-one] | 30
CCC(=O)c1cc(-c2ccncc2)c(N2CCC(=O)CC2)s1 [Example 18, 1-(5-Propionyl-3-pyridin-4-yl-thiophen-2-yl)-piperidin-4-one] | 26
O=C1CCN(c2sc(C(=O)c3cccc([N+](=O)[O-])c3)cc2-c2ccncc2)CC1 [Example 19] | 29
O=C1CCN(c2sc(C(=O)c3cccc(Br)c3)cc2-c2ccncc2)CC1 [Example 20, 1-[5-(3-Bromo-benzoyl)-3-pyridin-4-yl-thiophen-2-yl]-piperidin-4-one] | 23
